Data set [1] has as its system production and secretion of NGF in brain astroglial cells. The experiment in a line: Promoting activity for the production and secretion of NGF in brain astroglial cells of mouse (ELISA). The method, then: The experiment was performed by inducing the astroglial cells from mouse forebrain to culture system according to the procedures of S. Furukawa et al. which is described in Biochem. Biophys. Res. Commun., 136, 57-63 (1986).
That is, forebrains of 8-day old mice were dissected out and cut into small pieces. […] Cells and cell clamps were recovered by centrifugation at 200 xg for 5 minutes. They were cultured in Dulbecco modified Eagle's medium (a product of Gibco Co. hereinafter abbreviated as DMEM) containing 10% of fetal calf serum, […] of penicillin, and 50 μg/ml of streptomycin, for 10 to 14 days with medium changes every 3 days. After completing confluency, the cells were dissociated by trypsin treatment and recultured in new culture flasks. This procedure was repeated further twice and more. […] The cells will hereinafter be referred to as astroglial cells.
Astroglial cells were innoculated in 24-well plates having a well surface area of 2.1 cm^2 (a product of Falcon Co.) at a cell density of about 3×10^4 cells/well and cultured for 3 days in DMEM . medium supplemented with 10% of fetal calf serum. After completing confluency about 10^7 cells/well), the medium was changed to DMEM medium (0.5 ml/well) supplemented with 0.5% of bovine serum albumin ((fraction V) and cultured for 3 days. The culture was further continued with medium changes every 3 days. After cells were practically synchronized in the quiscent stage, the medium was changed to 0.5 ml of the medium supplemented with 0.5% of bovine serum albumin and containing a prescribed concentration of test sample as illustrated in Tables. […] Data are expressed as fold increase in NGF content over that in the absence of the test sample. […] Data are presented as means ±SE of four determinations.
(In general: ELISA stands for enzyme-linked immunosorbent assay.)

In data set [2] the test system is production and secretion of NGF on L-M cells. The experiment in a line: Promoting action for the production and secretion of NGF on L-M cells of mouse (ELISA). The class given is cell-based. As to conditions: for fold induction at 30 µM / fold induction at 100 µM / fold induction at 150 µM: Mus musculus; for Ratio of NGF increase: 1440 min. The text has this: Catecholamines have also been found in a relatively high concentration to accelerate these functions without being mediated by adrenergic receptors [Y. Furukawa et al., J. Biol. Chem., 261, 6039-6047 (1986)].
The compound having a high activity in Table 1, that is, the catechol derivative having a n-alkyl group in the 3 or 4 position on the ring has been observed an acute cell toxicity in higher concentrations. The toxicity was considered the result of two hydroxyl groups in the catechol structure. Then the hydroxyl groups were esterified or etherified and the resulting derivative was examined the effect on the activity for the production and secretion of NGF.
The experiment was performed according to the procedures of Y. Furukawa et al. which is described in J. Bis Chem., 261, 6039-6047 (1986).
The medium was cultured for 3 days at a temperature of 37° C. After completing the confluency (about 10^6 cells/well), the medium was changed to Medium 199 (0.5 ml/well) containing 0.5% bovine serum albumin (Fraction V, a product of Armour Co.). The sample of the derivative is contained in the medium at a prescribed concentration as illustrated in the Tables.

[3] abbreviates: 24 h, read-out: Ratio of NGF increase, Table 3, 0.10 mM, 24 hours, mean ± SE of four determinations.
Where [4] appears, read: 24 h, read-out: Ratio of NGF increase, Table 3, 0.25 mM, 24 hours, mean ± SE of four determinations.
[5] abbreviates: 24 h, Table 1, 0.03 mM, 24 hours, mean ± SE of four determinations, read-out: Ratio of NGF increase.
Setting [6] is: 24 h, Table 1, 0.10 mM, 24 hours, mean ± SE of four determinations, read-out: Ratio of NGF increase.
The mark [7] stands for this setting: 24 h, read-out: Ratio of NGF increase, 24-hr culture.
Setting [8] is: 48 h, read-out: Ratio of NGF increase, 48-hr culture.

Where two headings read alike, the source gives them in different places.

Turning to `CCc1ccc(O)c(O)c1C` [R = Two H, R1 = Methyl, R2 = Ethyl], the fold induction at 100 µM in data set [1] (setting [3]) amounted to 50.3 ± 6.27; in data set [2] (setting [6]), 3.19 ± 0.73. Also, in data set [1] (setting [4]), the fold induction at 250 µM was found to be 26.2 ± 2.6. The fold induction at 30 µM in data set [2] (setting [5]) was found to be 6.31 ± 0.39. Further, the “Ratio of NGF increase” value is reported as 5.39 ± 0.31 fold in data set [2] (Table 1, 0.03 mM, 24 hours, mean ± SE of four determinations, 30 µM) and 5.22 ± 0.27 fold in data set [2] (Table 1, 0.10 mM, 24 hours, mean ± SE of four determinations, 100 µM).
As for `Cc1ccc(O)c(O)c1C` [R = Two H, R1 = Methyl, R2 = Methyl], in data set [2] (setting [5]), the fold induction at 30 µM came out at 2.86 ± 0.12. In data set [2] (setting [6]), the fold induction at 100 µM was 3.11 ± 0.22.
Regarding `CCCCc1ccc(O)c(O)c1C` [R = Two H, R1 = Methyl, R2 = n-Butyl], the values for the fold induction at 100 µM in data set [1] (setting [3]) and in data set [2] (setting [6]) were 49.8 ± 3.65 and 7.73 ± 0.53, respectively. For the same molecule, the fold induction at 250 µM in data set [1] (setting [4]) was 76.2 ± 6.64. For the same molecule, in data set [2] (setting [5]), the fold induction at 30 µM came out at 6.87 ± 0.6.
As to `CCCc1ccc(O)c(O)c1C` [R = Two H, R1 = Methyl, R2 = n-Propyl], the values for the fold induction at 100 µM in data set [1] (setting [3]) and in data set [2] (setting [6]) were 41.3 ± 2.55 and 7.25 ± 0.32, respectively. Besides, the fold induction at 250 µM in data set [1] (setting [4]) turned out to be 61.6 ± 4.62. The fold induction at 30 µM in data set [2] (setting [5]) came to 6.34 ± 0.46.
Consider `CCC(C)c1ccc(O)c(O)c1C` (stereo not drawn) [R = Two H, R1 = Methyl, R2 = sec-Butyl], for which the fold induction at 30 µM in data set [2] (setting [5]) came out at 6.74 ± 0.25. Moreover, the fold induction at 100 µM in data set [2] (setting [6]) is 7 ± 0.76.
`Cc1c(C(C)(C)C)ccc(O)c1O` [R = Two H, R1 = Methyl, R2 = tert-Butyl]: the fold induction at 100 µM in data set [1] (setting [3]) stood at 9.65 ± 2.42; in data set [2] (setting [6]), 3.65 ± 0.39. For the same molecule, the fold induction at 250 µM in data set [1] (setting [4]) stood at 24.2 ± 2.73. The fold induction at 30 µM in data set [2] (setting [5]) is 2.82 ± 0.14.
As for `CCCCc1cccc(O)c1O` [R = Two H, R1 = n-Butyl, R2 = H], the fold induction at 100 µM in data set [1] (setting [3]) was determined as 56.2 ± 1.87. For the same molecule, the fold induction at 250 µM in data set [1] (setting [4]) turned out to be 93.3 ± 1.65. Also, the fold induction at 30 µM in data set [2] (setting [5]) stood at 8.33 ± 0.52.
As to `CCCCc1c(C)ccc(O)c1O` [R = Two H, R1 = n-Butyl, R2 = Methyl], the fold induction at 30 µM in data set [2] (setting [5]) amounted to 6.33 ± 0.75. In data set [2] (setting [6]), the fold induction at 100 µM was 6.9 ± 0.62.
For the molecule `CCCCCc1cccc(O)c1O` [R = Two H, R1 = n-Pentyl, R2 = H], the figures for the fold induction at 100 µM in data set [1] (setting [3]) and in data set [2] (setting [6]) were 37.2 ± 1.28 and 9.95 ± 0.98, respectively. Besides, the fold induction at 250 µM in data set [1] (setting [4]) came to 51.5 ± 1.4. Besides, the fold induction at 30 µM in data set [2] (setting [5]) stood at 5.26 ± 0.43.
Regarding `CCCc1c(C)ccc(O)c1O` [R = Two H, R1 = n-Propyl, R2 = Methyl], the fold induction at 30 µM in data set [2] (setting [5]) is 6.09 ± 0.65. In data set [2] (setting [6]), the fold induction at 100 µM is 6.98 ± 0.51.
Regarding `CC(=O)Oc1ccc(C)cc1OC(C)=O` [R = Two acetyl, R1 = H, R2 = Methyl], the fold induction at 100 µM in data set [1] (24 h, read-out: Ratio of NGF increase, 24-hr culture, Table 4, 0.10 mM, 24-hr culture) was determined as 49.8 ± 6.44; in data set [1] (48 h, read-out: Ratio of NGF increase, 48-hr culture, Table 4, 0.10 mM, 48-hr culture) it was 77.3 ± 6.52. The fold induction at 250 µM in data set [1] (24 h, read-out: Ratio of NGF increase, 24-hr culture, Table 4, 0.25 mM, 24-hr culture) is 41.2 ± 7.32; in data set [1] (48 h, read-out: Ratio of NGF increase, 48-hr culture, Table 4, 0.25 mM, 48-hr culture) it was 82.4 ± 7.24. Also, the fold induction at 30 µM in data set [2] (24 h, Table 2, 0.03 mM, 24-hr culture, read-out: Ratio of NGF increase, 24-hr culture) worked out at 4.92 ± 0.94; in data set [2] (48 h, Table 2, 0.03 mM, 48-hr culture, read-out: Ratio of NGF increase, 48-hr culture) it was 7.71 ± 0.86. Moreover, the fold induction at 150 µM amounted to 4.21 ± 0.4 in data set [2] (24 h, Table 2, 0.15 mM, 24-hr culture, read-out: Ratio of NGF increase, 24-hr culture) and 6.27 ± 0.75 in data set [2] (48 h, Table 2, 0.15 mM, 48-hr culture, read-out: Ratio of NGF increase, 48-hr culture).
For `COc1ccc(C)cc1OC` [R = Two methyl, R1 = H, R2 = Methyl, reference compound], the fold induction at 30 µM in data set [2] (setting [7]) was found to be 1.04 ± 0.07; in data set [2] (setting [8]), 1.03 ± 0.07. Besides, the fold induction at 150 µM in data set [2] (setting [7]) came out at 0.98 ± 0.06; in data set [2] (setting [8]), 0.98 ± 0.02.

Values taken from patent publication US5214034A, “Catechol derivatives, and preventive and remedial preparations for regressive disorders in the central nervous system containing the same” (priority 1986, dated 1993).
